Reference: patent US11066414B2, “Cot modulators and methods of use thereof” (Gilead Sciences, Inc., priority 2015, dated 2021)

Molecular target: Human Cot (Homo sapiens (Human), UniProt P41279)
Test: High Throughput Cot Biochemical Assay
Details: IC50 HTRF, Cot HTRF (TR-FRET) biochemical assay

Human Cot, sequence (P41279 30-397): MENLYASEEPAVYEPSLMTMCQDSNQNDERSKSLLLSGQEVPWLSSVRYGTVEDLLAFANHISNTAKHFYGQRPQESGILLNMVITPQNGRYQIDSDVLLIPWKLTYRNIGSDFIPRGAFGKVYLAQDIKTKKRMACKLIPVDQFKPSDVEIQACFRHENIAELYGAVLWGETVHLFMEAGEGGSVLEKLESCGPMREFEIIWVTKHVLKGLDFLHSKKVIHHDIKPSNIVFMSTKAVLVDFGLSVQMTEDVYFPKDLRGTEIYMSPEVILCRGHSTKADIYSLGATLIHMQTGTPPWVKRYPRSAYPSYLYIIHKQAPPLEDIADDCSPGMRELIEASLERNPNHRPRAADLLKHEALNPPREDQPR

Row | IC50 [nM] | SMILES
1 | 4 | Cn1cc(C(Nc2cc(Cl)c3ncc(C#N)c(Nc4ccc(F)c(Cl)c4)c3c2)c2cccnc2)nn1 (centres unmarked) [Example 395, 8-chloro-4-((3-chloro-4-fluoro-phenyl)amino)-6-(((1-methyl-1H-1,2,3-triazol-4-yl)(pyridin-3-yl)methyl)amino)quinoline-3-carbonitrile]
2 | 43 | CCN1CCC(n2cc(C(Nc3cc(Cl)c4ncc(C#N)c(Nc5ccc(F)c(Cl)c5)c4c3)c3cn(C)nn3)nn2)CC1 (centres unmarked) [Example 396, 8-chloro-4-((3-chloro-4-fluoro-phenyl)amino)-6-(((1-(1-ethyl-piperidin-4-yl)-1H-1,2,3-triazol-4-yl)(1-methyl-1H-1,2,3-triazol-4-yl)methyl)amino)quinoline-3-carbonitrile]
3 | 46 | Cn1cc(C(Nc2cc(Cl)c3ncc(C#N)c(Nc4ccc(F)c(Cl)c4)c3c2)c2cn(C3CCNCC3)nn2)nn1 (centres unmarked) [Example 397, 8-chloro-4-((3-chloro-4-fluoro-phenyl)amino)-6-(((1-methyl-1H-1,2,3-triazol-4-yl)(1-(piperidin-4-yl)-1H-1,2,3-triazol-4-yl)methyl)amino)-quinoline-3-carbonitrile]
4 | 119 | N#Cc1cnc2c(Cl)cc(NC(c3cccnc3)c3cn([C@@H]4CCN(C(=O)OCc5ccccc5)C4)nn3)cc2c1Nc1ccc(F)c(Cl)c1 (stereo partly drawn) [Example 400, benzyl (3R)-3-(4-(((8-chloro-4-((3-chloro-4-fluorophenyl)amino)-3-cyanoquinolin-6-yl)amino)(pyridin-3-yl)methyl)-1H-1,2,3-triazol-1-yl)pyrrolidine-1-carboxylate]
5 | 10 | N#Cc1cnc2c(Cl)cc(NC(c3cccnc3)c3cn([C@@H]4CCNC4)nn3)cc2c1Nc1ccc(F)c(Cl)c1 (stereo partly drawn) [Example 401, 8-chloro-4-((3-chloro-4-fluoro-phenyl)amino)-6-((pyridin-3-yl(1-((R)-pyrrolidin-3-yl)-1H-1,2,3-triazol-4-yl)methyl)amino)quinoline-3-carbonitrile]
6 | 19 | CCN1CC[C@@H](n2cc(C(Nc3cc(Cl)c4ncc(C#N)c(Nc5ccc(F)c(Cl)c5)c4c3)c3cccnc3)nn2)C1 (stereo partly drawn) [Example 402, 8-chloro-4-((3-chloro-4-fluoro-phenyl)amino)-6-(((1-((R)-1-ethylpyrrolidin-3-yl)-1H-1,2,3-triazol-4-yl)(pyridin-3-yl)methyl)-amino)quinoline-3-carbonitrile]
7 | 232 | N#Cc1cnc2c(Cl)cc(NC(c3cccnc3)c3cn(C4CCN(C(=O)OCc5ccccc5)CC4)nn3)cc2c1Nc1ccc(F)c(Cl)c1 (centres unmarked) [Example 404, benzyl 4-(4-(((8-chloro-4-((3-chloro-4-fluorophenyl)amino)-3-cyanoquinolin-6-yl)amino)(pyridin-3-yl)methyl)-1H-1,2,3-triazol-1-yl)piperidine-1-carboxylate]
8 | 3 | Cn1ncc2c([C@H](Nc3cc(Cl)c4ncc(C#N)c(NCC(C)(C)C)c4c3)c3cn(C4CC4)nn3)cccc21 [Example 423, (S)-8-chloro-6-(((1-cyclopropyl-1H-1,2,3-triazol-4-yl)(1-methyl-1H-indazol-4-yl)methyl)amino)-4-(neopentylamino)-quinoline-3-carbonitrile]
9 | 2 | CC(C)(C)CNc1c(C#N)cnc2c(C#N)cc(N[C@H](c3cn(C4(C(F)F)CC4)nn3)c3cccc4ncsc34)cc12 [Example 424, (S)-6-((benzo[d]thiazol-7-yl(1-(1-(difluoromethyl)cyclopropyl)-1H-1,2,3-triazol-4-yl)methyl)amino)-4-(neopentylamino)quinoline-3,8-dicarbonitrile]
10 | 2 | CC(C)(C)CNc1c(C#N)cnc2c(C#N)cc(N[C@H](c3cn(C4(C(F)(F)F)CC4)nn3)c3csc4c3CCN(C3COC3)C4)cc12 [Example 429, (S)-4-(neopentylamino)-6-(((6-(oxetan-3-yl)-4,5,6,7-tetrahydrothieno[2,3-c]pyridin-3-yl)(1-(1-(trifluoromethyl)cyclopropyl)-1H-1,2,3-triazol-4-yl)methyl)amino)-quinoline-3,8-dicarbonitrile]
11 | 2 | CC(C)(C)CNc1c(C#N)cnc2c(Cl)cc(N[C@H](c3cn(C4(C)CC4)nn3)c3cccc4ncsc34)cc12 [Example 434, (S)-6-((benzo[d]thiazol-7-yl(1-(1-methylcyclopropyl)-1H-1,2,3-triazol-4-yl)methyl)amino)-8-chloro-4-(neopentylamino)quinoline-3-carbonitrile]
12 | 2 | CC(C)(C)CNc1c(C#N)cnc2c(Cl)cc(N[C@H](c3cn(C4(C(F)F)CC4)nn3)c3cccc4c3CNC4)cc12 [Example 445, (S)-8-chloro-6-(((1-(1-(difluoromethyl)-cyclopropyl)-1H-1,2,3-triazol-4-yl)(isoindolin-4-yl)methyl)amino)-4-(neopentylamino)quinoline-3-carbonitrile]
13 | 4 | CC(C)(C)CNc1c(C#N)cnc2c(Cl)cc(N[C@H](c3cn(C4(CO)CC4)nn3)c3cccc4ncsc34)cc12 [Example 458, (S)-6-((benzo[d]thiazol-7-yl(1-(1-(hydroxymethyl)cyclopropyl)-1H-1,2,3-triazol-4-yl)methyl)amino)-8-chloro-4-(neopentylamino)quinoline-3-carbonitrile]
14 | 2 | CC(C)(C)CNc1c(C#N)cnc2c(C#N)cc(N[C@H](c3cn(C4CC4)nn3)c3cccc4ncccc34)cc12 [Example 467, (S)-6-(((1-cyclopropyl-1H-1,2,3-triazol-4-yl)(quinolin-5-yl)methyl)amino)-4-(neopentylamino)quinoline-3,8-dicarbonitrile]
15 | 3 | Cc1nc(F)ccc1[C@H](Nc1cc(Cl)c2ncc(C#N)c(NCC(C)(C)C)c2c1)c1cn(C2(C#N)CC2)nn1 [Example 476, (S)-8-chloro-6-(((1-(1-cyanocyclopropyl)-1H-1,2,3-triazol-4-yl)(6-fluoro-2-methylpyridin-3-yl)methyl)amino)-4-(neopentylamino)-quinoline-3-carbonitrile]
16 | 1 | Cc1nc(F)ccc1[C@H](Nc1cc(Cl)c2ncc(C#N)c(NCC(C)(C)C)c2c1)c1cn(C2(C(N)=O)CCC2)nn1 [Example 478, (S)-1-(4-(((8-chloro-3-cyano-4-(neopentylamino)quinolin-6-yl)amino)(6-fluoro-2-methylpyridin-3-yl)methyl)-1H-1,2,3-triazol-1-yl)cyclobutane-1-carboxamide]
17 | 3 | Cn1cnc2cccc([C@H](Nc3cc(Cl)c4ncc(C#N)c(NCC(C)(C)C)c4c3)c3cn(C4(C(F)F)CC4)nn3)c21 [Example 499, (S)-8-chloro-6-(((1-(1-(difluoromethyl)-cyclopropyl)-1H-1,2,3-triazol-4-yl)(1-methyl-1H-benzo[d]imidazol-7-yl)methyl)amino)-4-(neopentylamino)-quinoline-3-carbonitrile]
18 | 4 | Cc1nc(F)ccc1[C@H](Nc1cc(F)c2ncc(C#N)c(NCC(C)(C)C)c2c1)c1cn(C2(C(F)F)CC2)nn1 [Example 514, (S)-6-(((1-(1-(difluoromethyl)cyclopropyl)-1H-1,2,3-triazol-4-yl)(6-fluoro-2-methylpyridin-3-yl)methyl)amino)-8-fluoro-4-(neopentylamino)quinoline-3-carbonitrile]
19 | 2 | CC(C)(C)CNc1c(C#N)cnc2c(C#N)cc(N[C@H](c3cn(C4(C(F)(F)F)CC4)nn3)c3cccc4ccncc34)cc12 [Example 535, (S)-6-((isoquinolin-8-yl(1-(1-(trifluoro-methyl)cyclopropyl)-1H-1,2,3-triazol-4-yl)methyl)amino)-4-(neopentylamino)-quinoline-3,8-dicarbonitrile]
20 | 3 | CCc1ncccc1[C@H](Nc1cc(Cl)c2ncc(C#N)c(NCC(C)(C)C)c2c1)c1cn(C2(C(F)F)CC2)nn1 [Example 604, (S)-8-chloro-6-(((1-(1-(difluoromethyl)cyclo-propyl)-1H-1,2,3-triazol-4-yl)(2-ethylpyridin-3-yl)methyl)amino)-4-(neopentylamino)-quinoline-3-carbonitrile]
21 | 9 | CC(C)(C)CNc1c(C#N)cnc2c(Cl)cc(N[C@H](c3cn(C4(C(F)(F)F)CC4)nn3)c3ccc(F)c4ncccc34)cc12 [Example 617, (S)-8-chloro-6-(((8-fluoroquinolin-5-yl)(1-(1-(trifluoromethyl)cyclopropyl)-1H-1,2,3-triazol-4-yl)methyl)amino)-4-(neopentylamino)quinoline-3-carbonitrile]
22 | 3 | Cn1ccc2c([C@H](Nc3cc(Cl)c4ncc(C#N)c(NCC(C)(C)C)c4c3)c3cn(C4(C(F)(F)F)CC4)nn3)cccc2c1=O [Example 618, (S)-8-chloro-6-(((2-methyl-1-oxo-1,2-dihydroisoquinolin-5-yl)(1-(1-(trifluoromethyl)cyclopropyl)-1H-1,2,3-triazol-4-yl)methyl)amino)-4-(neopentylamino)quinoline-3-carbonitrile]
23 | 2 | Cc1nc(F)ccc1[C@H](Nc1cc(C#N)c2ncc(C#N)c(NCC(C)(C)C)c2c1)c1cn(C23CC(C2)C3)nn1 [Example 649, (S)-6-(((1-(bicyclo[1.1.1]pentan-1-yl)-1H-1,2,3-triazol-4-yl)(6-fluoro-2-methylpyridin-3-yl)methyl)amino)-4-(neopentylamino)quinoline-3,8-dicarbonitrile]

Same assay, conditions: read-out: IC50 HTRF; Cot HTRF (TR-FRET) biochemical assay

Row | IC50 [nM] | SMILES
24 | 58 | Cn1cc(C(Nc2cc(Cl)c3ncc(C#N)c(Nc4ccc(F)c(Cl)c4)c3c2)c2cn(C3CCN(C(C)(C)C)CC3)nn2)nn1 (centres unmarked) [Example 399, 6-(((1-(1-(tert-butyl)piperidin-4-yl)-1H-1,2,3-triazol-4-yl)(1-methyl-1H-l, 2,3-triazol-4-yl)methyl)amino)-8-chloro-4-((3-chloro-4-fluorophenyl)-amino)quinoline-3-carbonitrile]
25 | 2 | Cc1n[nH]c2cccc([C@H](Nc3cc(C#N)c4ncc(C#N)c(NCC(C)(C)C)c4c3)c3cn(C4(C(F)F)CC4)nn3)c12 [Example 571]
26 | 2 | Cc1nc(F)ccc1[C@H](Nc1cc(Cl)c2ncc(C#N)c(NCC(C)(C)C)c2c1)c1cn(C(F)(F)CO)nn1 [Example 584, (S)-8-chloro-6-(((1-(i, 1-difluoro-2-hydroxyethyl)-1H-1,2,3-triazol-4-yl)(6-fluoro-2-methylpyridin-3-yl)methyl)amino)-4-(neopentylamino)quinoline-3-carbonitrile]
